PubChem BioAssay (NCI)
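A five-concentration, 48-hour dose response in 96-well plates underlies each endpoint, interpolated linearly between surrounding concentrations. GI50 is the concentration that inhibits growth by half. The concentration for full growth arrest is given as TGI.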

How the values were obtained:
Test in all cases: NCI tumour cell line growth inhibition, 48 h
LOX IMVI melanoma = tested on: LOX IMVI melanoma
DU-145 prostate = tested on: DU-145 prostate
SF-295 CNS = tested on: SF-295 CNS
UO-31 renal = tested on: UO-31 renal
BT-549 breast = tested on: BT-549 breast
NCI-H23 lung = tested on: NCI-H23 lung
MOLT-4 leukemia = tested on: MOLT-4 leukemia
CAKI-1 renal = tested on: CAKI-1 renal
MALME-3M melanoma = tested on: MALME-3M melanoma
MDA-N = tested on: MDA-N

Compound | TGI (LOX IMVI melanoma) [µM] | TGI (DU-145 prostate) [µM] | TGI (SF-295 CNS) [µM] | TGI (UO-31 renal) [µM] | TGI (BT-549 breast) [µM] | TGI (NCI-H23 lung) [µM] | TGI (MOLT-4 leukemia) [µM] | TGI (CAKI-1 renal) [µM] | GI50 (LOX IMVI melanoma) [µM] | TGI (MALME-3M melanoma) [µM] | GI50 (SF-295 CNS) [µM] | GI50 (UO-31 renal) [µM] | GI50 (BT-549 breast) [µM] | TGI (MDA-N) [µM]
O=C(NCCN1CCOCC1)c1ccc2cc(C(=O)N3CC(CCl)c4ccc([N+](=O)[O-])cc43)[nH]c2c1 (configuration not stated) | > 100 | 49.3 | 13.3 | > 100 | 92.3 | > 100 | 39.1 | 52.4 | – | – | – | – | – | –
O=C(c1cc2ccccc2cc1O)N1CCCCC1 | > 100 | > 100 | > 100 | > 100 | 84.2 | – | 42.7 | > 100 | – | – | – | – | – | –
O=c1oc(-c2ccc(O)c(O)c2)cc2cccc(O)c12 | 37.2 | 70.2 | 80.2 | > 59.4 | 49 | 53.6 | 52 | 38.7 | 12.5 | > 86.5 | – | – | – | –
COCOc1ccc(Cn2c(=O)n(C)c(=O)c3c2ncn3C)cc1[N+](=O)[O-] | > 100 | – | > 100 | > 100 | – | > 100 | > 100 | – | – | > 100 | – | – | – | –
COc1cc([N+](=O)[O-])c(OC)cc1-c1nc2sc(Cl)cn2c1/C=N/Nc1ccccn1 | > 50 | – | 41.8 | > 50 | 38.7 | – | – | – | > 50 | – | 12.4 | > 50 | 15.5 | –
CCOC(=O)NC(=S)NN(C)C1=NCC(C)(C)S1 | > 100 | > 100 | > 100 | > 100 | > 100 | – | > 100 | > 100 | – | – | – | – | – | > 100
COc1cc(NS(C)(=O)=O)ccc1N1Cc2cnc3ccc4[nH]c(C)cc1c4c23 | > 100 | > 100 | > 100 | > 100 | > 100 | > 100 | > 100 | 74.5 | – | – | – | – | – | 47.7
C1=CC2=CC=CC3c4nc5ccc6ccccc6c5nc4C(=C1)C23 (configuration not stated) | > 100 | > 100 | > 100 | > 100 | – | > 100 | > 100 | > 100 | – | > 100 | – | – | – | > 100
Brc1cccc(Nc2nc(-c3cccs3)nc3ccc(Br)cc23)c1 | > 100 | > 100 | 45.1 | > 100 | > 100 | > 100 | > 100 | 68.5 | – | 65.2 | – | – | – | –
COc1ccc(C2(CC(C)O)SCCCS2)cc1 (configuration not stated) | – | > 100 | > 100 | > 100 | > 100 | > 100 | > 100 | > 100 | – | > 100 | – | – | – | > 100
O=[N+]([O-])/C(C(Cl)=C(Cl)Cl)=C(\Nc1cccc2cccnc12)SCc1ccccc1 | – | 39.6 | 37.4 | 38.1 | 35.6 | 32.7 | 14.4 | 43.3 | – | 28.9 | – | – | – | > 100
CCCNC(=O)CCC(C)[C@H]1CCC2C3C(C[C@H](OC(C)=O)[C@@]21C)[C@@]1(C)CCC2(C[C@H]1C[C@H]3OC(C)=O)OOC1(CCC(C)CC1)OO2 (some centres not stated) | – | 21.2 | 52.5 | 2.42 | 60.5 | 18.7 | > 100 | 5.14 | – | 40.3 | – | – | – | 28.6
C=CCNC(=S)/N=C/c1c(O)c2ccccc2oc1=O | > 100 | – | > 100 | > 100 | – | > 100 | > 100 | 82.6 | – | 96 | – | – | – | –
O=C(/C=C/c1ccsc1)c1ccsc1 | 35.2 | > 100 | > 100 | 28.7 | – | 54.8 | 44.7 | 41.4 | – | 75.1 | – | – | – | 49.7
CCOC(=O)c1c(-c2ccc(OC)cc2)c(C#N)c(=S)n(C2OC(COC(C)=O)C(OC(C)=O)C(OC(C)=O)C2OC(C)=O)c1C (configuration not stated) | > 100 | > 100 | > 100 | 6.02 | – | > 100 | > 100 | > 100 | – | > 100 | – | – | – | > 100
O=S(=O)(O)c1cc2ccc1/C=C\c1ccc(cc1S(=O)(=O)O)N=Nc1ccc(c(S(=O)(=O)O)c1)/C=C\c1ccc(cc1S(=O)(=O)O)N=N2 | > 100 | – | > 100 | > 100 | – | > 100 | > 100 | – | – | > 100 | – | – | – | –
c1ccc2c(c1)NC(C1OC3CCCN3C1C1Nc3ccccc3S1)S2 (configuration not stated) | – | > 100 | > 100 | > 100 | > 100 | > 100 | > 100 | > 100 | – | > 100 | – | – | – | –
O=C(N=Nc1cc(Cl)ccc1Cl)NNc1cc(Cl)ccc1Cl | – | > 100 | > 100 | 29 | – | 53.1 | – | 43.7 | – | 82.1 | – | – | – | 84.4
